Assays:
Settings in all cases: Hit No
[1] = target: Methyl-CpG-binding domain protein 4 (Homo sapiens) (UniProt O95243);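 further: MBD4 activity read as fluorescence at 594 nm from cleavage and release of a quenched duplex DNA oligonucleotide, with APE1 coupled to incise the strand and raise turnover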
Description: Inhibition of MBD4 by quantifying inhibition of MBD4-mediated cleavage and dissociation of quenched duplex DNA oligonucleotides, measured as fluorescence at 594 nm. To generate a functional strand incision and increase turn-over this assay is coupled to APE1.

[2] = target: Endonuclease 8-like 1 (Homo sapiens) (UniProt Q96FI4);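 further: fluorescence at 594 nm from quenched duplex DNA oligonucleotides released by NEIL1 cleavage and strand separation, reported as reduction of this enzyme activity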
Description: Inhibition of NEIL1 by quantifying inhibition of NEIL1-mediated cleavage and dissociation of quenched duplex DNA oligonucleotides, measured as fluorescence at 594 nm.

[3] = target: T1, Endonuclease 8-like 2 (Homo sapiens) (UniProt Q969S2);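 further: fluorescence at 594 nm reports NEIL2 cutting and release of a quenched double-stranded DNA oligo substrate, reduced signal read as inhibition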
T1 sequence (whole entry): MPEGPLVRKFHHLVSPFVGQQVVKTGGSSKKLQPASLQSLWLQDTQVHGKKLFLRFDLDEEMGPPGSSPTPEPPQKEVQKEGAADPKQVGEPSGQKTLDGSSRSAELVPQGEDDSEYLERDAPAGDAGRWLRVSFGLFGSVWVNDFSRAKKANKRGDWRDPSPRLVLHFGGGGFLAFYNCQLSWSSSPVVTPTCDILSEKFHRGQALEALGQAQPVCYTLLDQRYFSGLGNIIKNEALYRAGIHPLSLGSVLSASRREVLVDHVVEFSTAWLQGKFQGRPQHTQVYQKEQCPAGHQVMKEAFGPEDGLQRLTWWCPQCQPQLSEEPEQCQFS
Description: Inhibition of NEIL2 by quantifying inhibition of NEIL2-mediated cleavage and dissociation of quenched duplex DNA oligonucleotides, measured as fluorescence at 594 nm.

[4] = target: T2, Endonuclease III-like protein 1 (Homo sapiens) (UniProt P78549);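 further: enzyme assay tracking NTHL1 cutting and release of a quenched double-stranded DNA oligo substrate, read as fluorescence at 594 nm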
T2 sequence (whole entry): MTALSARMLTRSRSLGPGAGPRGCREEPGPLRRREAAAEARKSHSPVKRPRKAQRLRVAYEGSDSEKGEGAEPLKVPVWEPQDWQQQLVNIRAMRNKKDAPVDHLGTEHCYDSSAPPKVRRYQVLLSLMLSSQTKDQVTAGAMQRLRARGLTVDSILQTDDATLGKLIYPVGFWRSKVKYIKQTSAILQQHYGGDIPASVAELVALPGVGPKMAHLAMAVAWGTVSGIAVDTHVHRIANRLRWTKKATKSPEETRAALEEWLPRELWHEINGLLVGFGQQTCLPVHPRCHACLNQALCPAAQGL
Description: Inhibition of NTHL1 by quantifying inhibition of NTHL1-mediated cleavage and dissociation of quenched duplex DNA oligonucleotides, measured as fluorescence at 594 nm.

[5] = target: N-glycosylase/DNA lyase (Homo sapiens) (UniProt O15527);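 further: OGG1 cleavage of a quenched duplex DNA oligonucleotide, coupled to APE1 for strand incision, read as fluorescence at 594 nm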
Description: Inhibition of OGG1 by quantifying inhibition of OGG1-mediated cleavage and dissociation of quenched duplex DNA oligonucleotides, measured as fluorescence at 594 nm. To generate a functional strand incision and increase turn-over this assay is coupled to APE1.

[6] = target: T3, Single-strand selective monofunctional uracil DNA glycosylase (Homo sapiens) (UniProt Q53HV7);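 further: enzymatic SMUG1 assay coupled with APE1, reading fluorescence at 594 nm released when a quenched double-stranded DNA oligonucleotide substrate is cleaved and separated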
T3 sequence (whole entry): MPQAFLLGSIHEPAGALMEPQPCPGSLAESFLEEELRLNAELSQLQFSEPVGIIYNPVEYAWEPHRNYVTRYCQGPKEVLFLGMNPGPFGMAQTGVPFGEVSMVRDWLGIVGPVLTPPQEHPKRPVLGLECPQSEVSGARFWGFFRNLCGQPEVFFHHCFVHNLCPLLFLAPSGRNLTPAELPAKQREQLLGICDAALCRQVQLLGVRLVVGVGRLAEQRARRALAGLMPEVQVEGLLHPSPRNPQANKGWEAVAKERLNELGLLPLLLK
Description: Inhibition of SMUG1 by quantifying inhibition of SMUG1-mediated cleavage and dissociation of quenched duplex DNA oligonucleotides, measured as fluorescence at 594 nm. To generate a functional strand incision and increase turn-over this assay is coupled to APE1.

[7] = target: G/T mismatch-specific thymine DNA glycosylase (Homo sapiens) (UniProt Q13569);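 further: human TDG cleavage of quenched duplex DNA oligonucleotides coupled to APE1, strand release read as fluorescence at 594 nm, inhibition of TDG activity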
Description: Inhibition of TDG by quantifying inhibition of TDG-mediated cleavage and dissociation of quenched duplex DNA oligonucleotides, measured as fluorescence at 594 nm. To generate a functional strand incision and increase turn-over this assay is coupled to APE1.

[8] = target: Uracil-DNA glycosylase (Homo sapiens) (UniProt P13051);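 further: UNG excision on a quenched double-stranded DNA oligo probe, with APE1 added for strand incision and turnover, read as fluorescence at 594 nm as strands separate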
Sequence of Uracil-DNA glycosylase (Homo sapiens) (P13051 whole entry): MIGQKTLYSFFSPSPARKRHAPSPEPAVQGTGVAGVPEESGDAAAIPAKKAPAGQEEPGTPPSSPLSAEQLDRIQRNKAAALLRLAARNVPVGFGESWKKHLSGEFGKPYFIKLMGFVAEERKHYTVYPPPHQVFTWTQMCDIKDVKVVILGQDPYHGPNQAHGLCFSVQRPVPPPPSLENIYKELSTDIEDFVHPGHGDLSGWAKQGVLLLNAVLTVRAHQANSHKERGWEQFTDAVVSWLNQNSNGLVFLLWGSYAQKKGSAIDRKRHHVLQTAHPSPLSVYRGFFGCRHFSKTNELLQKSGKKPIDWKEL
Description: Inhibition of UNG by quantifying inhibition of UNG-mediated cleavage and dissociation of quenched duplex DNA oligonucleotides, measured as fluorescence at 594 nm. To generate a functional strand incision and increase turn-over this assay is coupled to APE1.

Sequence of G/T mismatch-specific thymine DNA glycosylase (Homo sapiens) (Q13569 whole entry): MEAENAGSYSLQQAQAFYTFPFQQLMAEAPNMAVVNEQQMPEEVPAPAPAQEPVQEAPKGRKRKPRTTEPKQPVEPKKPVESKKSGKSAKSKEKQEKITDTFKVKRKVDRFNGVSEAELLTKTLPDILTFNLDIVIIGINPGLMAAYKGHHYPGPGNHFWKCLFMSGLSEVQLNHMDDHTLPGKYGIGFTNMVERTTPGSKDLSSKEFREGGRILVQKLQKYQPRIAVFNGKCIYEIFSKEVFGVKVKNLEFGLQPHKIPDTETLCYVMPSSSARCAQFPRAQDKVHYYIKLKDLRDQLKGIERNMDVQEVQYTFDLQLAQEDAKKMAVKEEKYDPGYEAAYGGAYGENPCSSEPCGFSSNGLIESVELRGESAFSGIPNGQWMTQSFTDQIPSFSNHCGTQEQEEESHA
Sequence of Endonuclease 8-like 1 (Homo sapiens) (Q96FI4 whole entry): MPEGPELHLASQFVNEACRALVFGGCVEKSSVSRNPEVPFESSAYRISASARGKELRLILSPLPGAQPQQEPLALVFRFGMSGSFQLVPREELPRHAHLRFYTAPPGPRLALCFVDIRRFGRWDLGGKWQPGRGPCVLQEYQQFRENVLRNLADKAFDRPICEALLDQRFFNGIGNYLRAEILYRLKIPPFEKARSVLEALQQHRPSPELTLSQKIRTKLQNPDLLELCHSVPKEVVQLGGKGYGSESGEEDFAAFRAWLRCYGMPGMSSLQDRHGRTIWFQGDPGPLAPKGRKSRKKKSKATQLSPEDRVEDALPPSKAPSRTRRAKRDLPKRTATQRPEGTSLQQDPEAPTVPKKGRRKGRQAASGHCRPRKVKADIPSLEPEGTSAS
Sequence of Methyl-CpG-binding domain protein 4 (Homo sapiens) (O95243 whole entry, the tested form may be a part): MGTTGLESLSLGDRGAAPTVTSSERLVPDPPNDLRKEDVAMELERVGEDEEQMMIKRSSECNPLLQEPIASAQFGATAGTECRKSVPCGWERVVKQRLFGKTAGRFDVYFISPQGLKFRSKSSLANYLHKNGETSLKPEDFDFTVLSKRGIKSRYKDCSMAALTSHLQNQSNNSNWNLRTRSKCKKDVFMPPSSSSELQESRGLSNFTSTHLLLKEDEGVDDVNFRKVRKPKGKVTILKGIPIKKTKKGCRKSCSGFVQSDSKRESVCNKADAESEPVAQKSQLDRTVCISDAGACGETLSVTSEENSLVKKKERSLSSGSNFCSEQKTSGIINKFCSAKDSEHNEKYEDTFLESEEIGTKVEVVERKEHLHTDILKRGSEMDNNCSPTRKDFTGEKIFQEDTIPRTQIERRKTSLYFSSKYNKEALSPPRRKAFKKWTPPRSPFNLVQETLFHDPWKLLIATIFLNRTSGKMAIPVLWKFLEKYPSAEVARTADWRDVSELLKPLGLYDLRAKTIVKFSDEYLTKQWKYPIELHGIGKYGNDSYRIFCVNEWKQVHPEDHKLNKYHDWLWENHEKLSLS
Sequence of N-glycosylase/DNA lyase (Homo sapiens) (O15527 whole entry): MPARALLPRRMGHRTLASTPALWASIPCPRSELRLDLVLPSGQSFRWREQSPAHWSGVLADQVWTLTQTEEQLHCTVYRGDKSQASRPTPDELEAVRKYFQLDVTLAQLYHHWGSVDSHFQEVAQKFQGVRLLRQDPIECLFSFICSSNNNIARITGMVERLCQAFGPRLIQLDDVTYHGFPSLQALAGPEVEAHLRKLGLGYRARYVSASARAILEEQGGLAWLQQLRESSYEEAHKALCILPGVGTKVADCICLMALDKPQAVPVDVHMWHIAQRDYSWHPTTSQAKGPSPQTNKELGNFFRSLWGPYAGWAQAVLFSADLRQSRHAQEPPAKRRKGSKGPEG

| Structure (SMILES) | inhibition ([1]; Compound Concentration 1.0 uM) [%] | inhibition ([2]; Compound Concentration 1.0 uM) [%] | inhibition ([3]; Compound Concentration 1.0 uM) [%] | inhibition ([4]; Compound Concentration 1.0 uM) [%] | inhibition ([5]; Compound Concentration 1.0 uM) [%] | inhibition ([6]; Compound Concentration 1.0 uM) [%] | inhibition ([7]; Compound Concentration 1.0 uM) [%] | inhibition ([8]; Compound Concentration 1.0 uM) [%] | inhibition ([1]; Compound Concentration 10.0 uM) [%] | inhibition ([2]; Compound Concentration 10.0 uM) [%] | inhibition ([3]; Compound Concentration 10.0 uM) [%] | inhibition ([4]; Compound Concentration 10.0 uM) [%] | inhibition ([5]; Compound Concentration 10.0 uM) [%] | inhibition ([6]; Compound Concentration 10.0 uM) [%] | inhibition ([7]; Compound Concentration 10.0 uM) [%] | inhibition ([8]; Compound Concentration 10.0 uM) [%] |
| --- | --- | --- | --- | --- | --- | --- | --- | --- | --- | --- | --- | --- | --- | --- | --- | --- |
| CS(=O)(=O)c1cc(C2(NC(=O)c3cncc4c3cnn4-c3ccc(F)cc3)CC2)ccn1 | 53.3 | -0.745 | 1.04 | 0.0274 | -1.05 | 7.38 | 54.5 | 0.429 | – | – | – | – | – | – | – | – |
| COc1cc(O)c(C(CC(=O)N2C[C@H](C)C[C@H](C)C2)c2ccc3c(c2)OCO3)c(OC)c1 (stereo partly drawn) | – | – | – | – | – | – | – | – | 55.4 | -4.23 | -7.38 | -3.92 | 10.8 | 8.36 | 58.3 | -0.808 |
| C[C@H](NC(=O)c1cn(C2(C#N)CC2)cn1)C(=O)Nc1nc(-c2cccc(-c3ccn(C)n3)c2)cs1 | 59.5 | -5.74 | -9.67 | -7.2 | -5.28 | 3.85 | 51.4 | 1.27 | – | – | – | – | – | – | – | – |
| FC(F)(F)c1c(N2CCC(c3ccccc3)CC2)ccn2c(CC3CC3)nnc12 | – | – | – | – | – | – | – | – | 5.84 | -4.5 | -1.48 | 7.79 | 0.771 | 1.61 | 16.4 | -5.14 |
| CO[C@H]1CC[C@H](CNc2ccc(S(=O)(=O)NC(=O)c3ccc(N4CCN(CC5=C(c6ccc(Cl)cc6)CC(C)(C)CC5)CC4)cc3Oc3cnc4[nH]ccc4c3)cc2[N+](=O)[O-])CC1 | – | – | – | – | – | – | – | – | 55.7 | -6.8 | 2.57 | -7.86 | 62 | 17.9 | 47.9 | 3.44 |
| Cc1ccc2nc(CNCCCOc3ccccc3)cc(O)c2c1 | – | – | – | – | – | – | – | – | 18.2 | 0.467 | -8.14 | 2 | 11.7 | 6.33 | 34.3 | -1.26 |
| CCCCOCCOc1nc(-c2ccc(C(=O)O)c(F)c2)sc1C | – | – | – | – | – | – | – | – | 64.4 | 6.68 | 6.14 | -1.29 | 14.4 | 18.1 | 46.5 | 1.01 |
| CC[C@@H]1[C@H](F)C(=O)N[C@@H]1COc1nccc2cc(C(N)=O)c(OC)cc12 | 1.45 | -3.17 | -7.57 | 2.88 | -7.95 | 2.52 | 35.2 | -6.54 | – | – | – | – | – | – | – | – |
| Cc1cc(OCC(=O)O)cc(C)c1Cc1ccc(O)c(C(C)C)c1 | – | – | – | – | – | – | – | – | 57.9 | -0.29 | 4.61 | 7.26 | 20.6 | 9.54 | 63 | 2.02 |
| CN1C(=O)[C@@H](N2CCc3c(nn(Cc4ccccc4)c3Br)C2=O)COc2ccccc21 | 25 | -6.27 | -4.38 | -4.24 | 0.775 | 3.33 | 32.5 | -2.6 | – | – | – | – | – | – | – | – |
| CCCOc1ccc([C@H]2[C@H](C(=O)O)[C@@H](c3ccc4c(c3)OCO4)CN2CC(=O)Nc2c(CC)cccc2CC)cc1 | 70.6 | 2.13 | 0.276 | -5.23 | 10.2 | 23 | 57.6 | 6.95 | – | – | – | – | – | – | – | – |
